In US9399017B2, “Peptide pharmaceutical for oral delivery” (Enteris BioPharma, Inc., priority 2007, dated 2016):

Legend:
[1] = cited from earlier work
[2] = Plasma sCT Cmax in Beagle dogs after oral tablet (ELISA); format: in vivo; conditions: for Cmax: Beagle, dog, plasma, po, 1.7 mg, oral tablet 1.7 mg sCT
Description: Following application of the indicated amounts of HPMC to the indicated weight gain (in those examples utilizing the undercoat), the tablets were then sealed with an enteric coat made of Eudragit L30D-55 to the indicated further weight gain. Beagle dogs were given a tablet of the indicated combination of undercoat-enteric coat and aliquots of blood were taken at 15 minute intervals for 4 hours. Plasma was separated from the blood samples and analyzed for sCT by ELISA.

Cmax ([2]; HPMC undercoat 0%, L30D-55 enteric coat 4% tablet weight gain): 0.07 ng/mL
Cmax ([2]; HPMC undercoat 0%, L30D-55 enteric coat 7% tablet weight gain): 0.121 ng/mL
Cmax ([2]; HPMC undercoat 3%, L30D-55 enteric coat 4% tablet weight gain): 0.142 ng/mL
Cmax ([2]; HPMC undercoat 3%, L30D-55 enteric coat 7% tablet weight gain): 0.378 ng/mL
Cmax ([2]; HPMC undercoat 6%, L30D-55 enteric coat 4% tablet weight gain): 0.667 ng/mL
Cmax ([2]; HPMC undercoat 6%, L30D-55 enteric coat 7% tablet weight gain): 0.51 ng/mL
increase of sCT Cmax when amount of enteric coat was increased nearly 1.75 fold ([2]; absence of an undercoat): 1.7 fold
increase of sCT Cmax when an HPMC undercoat was included ([2]; one embodiment): more than 9 fold
SMILES: CC(C)C[C@H](NC(=O)[C@H](CCCCN)NC(=O)CNC(=O)[C@H](CC(C)C)NC(=O)[C@@H](NC(=O)[C@@H]1CSSC[C@H](N)C(=O)N[C@@H](CO)C(=O)N[C@@H](CC(N)=O)C(=O)N[C@@H](CC(C)C)C(=O)N[C@@H](CO)C(=O)N[C@@H]([C@@H](C)O)C(=O)N1)C(C)C)C(=O)N[C@@H](CO)C(=O)N[C@@H](CCC(N)=O)C(=O)N[C@@H](CCC(=O)O)C(=O)N[C@@H](CC(C)C)C(=O)N[C@@H](Cc1c[nH]cn1)C(=O)N[C@@H](CCCCN)C(=O)N[C@@H](CC(C)C)C(=O)N[C@@H](CCC(N)=O)C(=O)N[C@H](C(=O)N[C@@H](Cc1ccc(O)cc1)C(=O)N1CCC[C@H]1C(=O)N[C@@H](CCCNC(=N)N)C(=O)N[C@H](C(=O)N[C@@H](CC(N)=O)C(=O)N[C@H](C(=O)NCC(=O)N[C@@H](CO)C(=O)NCC(=O)N[C@H](C(=O)N1CCC[C@H]1C(N)=O)[C@@H](C)O)[C@@H](C)O)[C@@H](C)O)[C@@H](C)O [sCT, salmon calcitonin]
time after injection beyond which there are usually no detectable blood levels ([1]; injection at conventional dosages): more than two
peak levels at which some patients report side-effects such as flushing nausea ([1]; patients): ≥ 200 picograms per milliliter
half-life ([1]; subcutaneous administration in man): 20 to 40 min
peak serum concentration ([1]; subcutaneous administration, 100 International units): about 250 picograms per milliliter
